The record followed here is US12544372B2, “Methods of treating rheumatoid arthritis, chronic spontaneous urticaria, and systemic lupus erythematosis using an inhibitor of Bruton's tyrosine kinase” (Genentech, Inc., priority 2019, dated 2026).

SMILES strings stand for the structures. Marks after values point to notes of the source that are not given here.

Assay type in all cases: in vivo, human
Data set [1] has as its system CD19+ B cells. Nature of the data set: RA study: peripheral CD19+ B cells (flow cytometry). As for the experimental part:
(§1) Biomarkers were evaluated in serum or plasma samples at baseline and weeks 1, 4, and 12 in patients with available samples (cohort 1: n=438; cohort 2: n=86). The biomarkers evaluated in this assessment were chemokine [C-C motif] ligand 4 (CCL4), IL-6, and TNF-like cytokine 1A (TL1A). Total IgM, IgG, rheumatoid factor IgM autoantibody (RF), CCL4, TL1A, IL-6, and anti-CCP autoantibody (ACPA IgG) levels were analyzed with immunoassays. CD19^+ B cells and CD3^+ T cells were measured by flow cytometry. The proportion of patients achieving an ACR50 response at week 12 and the change in DAS28 score by week 12 were assessed relative to seropositivity (RF and/or ACPA positive at baseline) or baseline levels of RF in both cohorts. To select which biomarkers to evaluate in this trial, BTK-dependent myeloid biomarkers were identified using peripheral blood CD14^+ monocytes stimulated with immune-complexes in the presence or absence of a BTK inhibitor. In brief, the expression levels of genes in human monocytes were assayed under conditions of no stimulation; with human serum albumin immune complex stimulation; with stimulation and a low concentration of a BTK inhibitor with similar characteristics to fenebrutinib; or with stimulation and a high concentration of the BTK inhibitor. […] Genes annotated with cytokine activity were selected. The color bar represents normalized gene expression.
(A flow cytometer gives signals particle by particle.)

The nature of data set [2]: RA study: safety. An excerpt:
Investigator conducted assessments: Joint counts and Physician's Global Assessment of Arthritis visual analog scale (VAS), safety assessments (adverse events, vital signs, concomitant medications, review of laboratory data). For Cohort 1 only: SC comparator drug injection; For Cohorts 1 and 2: Administration of oral study drug.

Data set [3] concerns Total IgM. In words: RA study biomarker: total IgM. As for the experimental part: as §1, with “Biomarkers were evaluated in serum or plasma samples at baseline and weeks 1, 4, and 12 in patients with available samples (cohort 1: n=438; cohort 2: n=86).” left out

For the compound `C[C@H]1CN(C2COC2)CCN1c1ccc(Nc2cc(-c3ccnc(N4CCn5c(cc6c5CC(C)(C)C6)C4=O)c3CO)cn(C)c2=O)nc1` [fenebrutinib, (S)-2-(3′-(hydroxymethyl)-1-methyl-5-((5-(2-methyl-4-(oxetan-3-yl)piperazin-1-yl)pyridin-2-yl)amino)-6-oxo-1,6-dihydro-[3,4′-bipyridin]-2′-yl)-7,7-dimethyl-2,3,4,6,7,8-hexahydro-1H-cyclopenta[4,5]pyrrolo[1,2-a]pyrazin-1-one], the “peripheral CD19+ B cells relative to placebo” value in data set [1] (cohort 1 and cohort 2, by week 12) is −4-13%. In addition, in data set [1] (cohort 1 and cohort 2, fenebrutinib treated groups, by week 1), the “transient increase of peripheral CD19+ B cells relative to placebo” value is recorded as 45-79%. The overall safety profile result in data set [2] (RA study) was “comparable to placebo and ADA”. In addition, the “Grade 3 LFT elevations” value in data set [2] (fenebrutinib arms versus placebo and ADA) was “numerically more”. Moreover, the “Total IgM Reduction as % of Baseline” value in data set [3] (Cohort 1, 50 mg QD, Week 4) turned out to be 94%; in data set [3] (Cohort 1, 50 mg QD, Week 8) it was 91%*; in data set [3] (Cohort 1, 50 mg QD, Week 12) it was 88%*; in data set [3] (Cohort 1, 150 mg QD, Week 4), 91%*; in data set [3] (Cohort 1, 150 mg QD, Week 8) it was 88%*; in data set [3] (Cohort 1, 150 mg QD, Week 12), 86%*. Besides, the “Total IgM Reduction as % of Baseline” value came to 92%* in data set [3] (Cohort 1, 200 mg BID, Week 4); 86%* in data set [3] (Cohort 1, 200 mg BID, Week 8); 84%* in data set [3] (Cohort 1, 200 mg BID, Week 12). The “Total IgM absolute reduction relative to placebo” value in data set [3] (cohort 1, 200 mg twice daily, by week 12) is -22 mg/dL. The “Total IgM reduction relative to placebo” value in data set [3] (cohort 2, 200 mg twice daily, by week 12) is -17 mg/dL.
